Laboratory results from patent US20120252803A1, “COMPOSITION AND METHOD FOR CONTROLLING ARTHROPOD PESTS” (SUMITOMO CHEMICAL COMPANY, LIMITED, priority 2009, published 2012).

Legend:
[1] = tested on: Common cutworm (Spodoptela litura); test: Test Example 1: pesticidal effect of artificial diet irrigation treatment on Common cutworm; format: in vivo; conditions: artificial diet irrigated with 2 mL test solution, fourth instar larvae, after 6 days
[2] = tested on: Common cutworm (Spodoptela litura); test: Test Example 2: pesticidal effect of artificial diet irrigation treatment on Common cutworm; format: in vivo; conditions: artificial diet irrigated with 2 mL test solution, fourth instar larvae, after 6 days
[3] = composition of the compound and esfenvalerate, Table 43
[4] = composition of the compound and fenpropathrin, Table 44
[5] = composition of the compound and esfenvalerate, Table 45
[6] = composition of the compound and fenpropathrin, Table 46

Structure (SMILES) | pesticidal efficacy against Common cutworm (Spodoptela litura) [1, 3] | pesticidal efficacy against Common cutworm (Spodoptela litura) [1, 4] | pesticidal efficacy against Common cutworm (Spodoptela litura) [2, 5] | pesticidal efficacy against Common cutworm (Spodoptela litura) [2, 6]
FC(F)(F)c1ccc2oc(-c3ccncc3Cl)nc2c1 [Compound 18, 2-(3-chloropyridin-4-yl)-5-(trifluoromethyl)benzoxazole] | high pesticidal efficacy | high pesticidal efficacy |  | 
FC(F)(F)COc1cnccc1-c1nc2cc(C(F)(F)F)ccc2o1 [Compound 39, 2-[3-(2,2,2-trifluoroethyl)oxypyridin-4-yl]-5-(trifluoromethyl)benzoxazole] |  |  | high pesticidal efficacy | high pesticidal efficacy
CC(C)Oc1cnccc1-c1nc2cc(C(F)(F)F)ccc2o1 [Compound 70, 2-(3-isopropoxypyridin-4-yl)-5-(trifluoromethyl)benzoxazole] | high pesticidal efficacy | high pesticidal efficacy |  | 
FC(F)(F)Sc1ccc2oc(-c3ccncc3Cl)nc2c1 [Compound 77, 2-(3-chloropyridin-4-yl)-5-(trifluoromethylthio)benzoxazole] | high pesticidal efficacy | high pesticidal efficacy |  | 
CCc1cnccc1-c1nc2cc(OC(F)(F)F)ccc2o1 [Compound 109, 2-(3-ethylpyridin-4-yl)-5-(trifluoromethoxy)benzoxazole] | high pesticidal efficacy | high pesticidal efficacy |  | 
CC(C)COc1cnccc1-c1nc2cc(C(F)(F)F)ccc2o1 [Compound 116, 2-(3-isobutoxypyridin-4-yl)-5-(trifluoromethyl)benzoxazole] |  |  | high pesticidal efficacy | high pesticidal efficacy
CC(C)(C)COc1cnccc1-c1nc2cc(C(F)(F)F)ccc2o1 [Compound 117, 2-[3-(2,2-dimethylpropoxy)pyridin-4-yl]-5-(trifluoromethyl)benzoxazole] |  |  | high pesticidal efficacy | high pesticidal efficacy
FC(F)(F)c1ccc2oc(-c3ccncc3-c3cccnc3)nc2c1 [Compound 128, 4-(5-trifluoromethyl-benzoxazole-2-yl)-[3,3′]bipyridinyl] | high pesticidal efficacy | high pesticidal efficacy |  | 
FC(F)(F)c1cnc2oc(-c3ccncc3Cl)nc2c1 [Compound 139, 2-(3-chloropyridin-4-yl)-6-(trifluoromethyl)oxazolo[5,4-b]pyridine] | high pesticidal efficacy | high pesticidal efficacy |  | 
CCc1cnccc1-c1nc2cc(C(F)(F)F)cnc2o1 [Compound 143, 2-(3-ethylpyridin-4-yl)-6-(trifluoromethyl)oxazolo[5,4-b]pyridine] | high pesticidal efficacy | high pesticidal efficacy |  | 
CSc1cnccc1-c1nc2cc(C(F)(F)F)cnc2o1 [Compound 146, 2-(3-methylthiopyridin-4-yl)-6-(trifluoromethyl)oxazolo[5,4-b]pyridine] | high pesticidal efficacy | high pesticidal efficacy |  | 
FC(F)(F)COc1cnccc1-c1nc2cc(C(F)(F)F)cnc2o1 [Compound 163] |  |  | high pesticidal efficacy | high pesticidal efficacy
